# Results published in patent publication US9725482B2, “Pentacyclic triterpenoid compound with modified structure and preparation method and use thereof” (Suzhou Botany Biomedicals Co., Ltd, priority 2013, dated 2017).
# Key:
# [1] = system: HaCat keratinocytes; assay: In vitro inhibition of growth of skin keratinocyte (CCK-8); type: cell-based; conditions: 24 hours; for concentration that completely inhibits the growth of the skin keratinocyte: HaCat cells, CCK-8
# Method: HaCat keratinocytes (purchased from ATCC) in a logarithmic growth phase were inoculated in a 96-well plate, with 2×10^4 cells for each well. The compound of formula (II) and AKBA were added respectively in a concentration gradient. The total volume was […]. DMSO was added in the control group to a final concentration of 0.25%. […] culture medium was added into the blank control well. Each group had three parallel experiments. After cultured in a cell incubator for 24 hours, […] CCK-8 solution was added into each well. Then the plate was placed in the incubator for incubation at 37° C. and 5% CO2 for 4 hours. OD value was measured at 450 nm by a microplate reader. The inhibition rate was calculated by the following equation: Inhibition Rate=[1−(OD of the test group/OD of the control group)]×100%.
# [2] = biological target: T1, 5-LOX (Homo sapiens, UniProt P09917); conditions: Sailer et al., British J Pharmacology, 1996; cited from earlier work
# T1 sequence (P09917 1-674): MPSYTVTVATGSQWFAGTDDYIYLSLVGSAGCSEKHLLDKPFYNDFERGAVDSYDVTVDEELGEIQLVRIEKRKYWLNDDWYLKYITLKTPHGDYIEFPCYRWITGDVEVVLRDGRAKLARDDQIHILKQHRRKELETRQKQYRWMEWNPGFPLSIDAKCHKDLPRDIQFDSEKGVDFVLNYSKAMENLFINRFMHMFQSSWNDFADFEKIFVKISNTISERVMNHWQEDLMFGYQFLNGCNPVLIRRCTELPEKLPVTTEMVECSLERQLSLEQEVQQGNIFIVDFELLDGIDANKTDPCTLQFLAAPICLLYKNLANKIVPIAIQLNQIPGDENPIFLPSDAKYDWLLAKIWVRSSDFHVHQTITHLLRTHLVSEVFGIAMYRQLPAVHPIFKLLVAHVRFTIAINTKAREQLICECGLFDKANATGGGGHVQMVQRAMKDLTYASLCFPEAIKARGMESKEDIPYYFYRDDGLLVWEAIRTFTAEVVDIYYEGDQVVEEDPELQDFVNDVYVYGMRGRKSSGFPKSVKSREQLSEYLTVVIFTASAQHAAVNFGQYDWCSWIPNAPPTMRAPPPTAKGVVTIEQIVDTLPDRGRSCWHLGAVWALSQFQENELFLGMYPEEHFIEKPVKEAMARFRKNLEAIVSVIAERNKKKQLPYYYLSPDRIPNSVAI
# [3] = system: mouse psoriasis model; assay: Treatment of mice psoriasis induced by imiquimod with gel formulation; type: in vivo, Balb/c mice; conditions: 0.5% (w/w) gel, day 8 to day 14, topical
# Method: (§1) Thirty age- and sex-matched Balb/c mice, 10 in the control group using a blank gel, 10 in the treatment group using AKBA gel and 10 in the treatment group using CKBA gel, were coated on their backs by imiquimod (62.5 mg/day for each mouse) for 7 days to establish mouse psoriasis model. At day 8 to day 14, the blank gel (Control), AKBA gel (0.5% (w/w)) and CKBA gel (0.5% (w/w)) were administered to the mice for treatment, respectively. Imiquimod was administered every two days to the back of the mice to maintain the skin inflammation. At day 15 pictures were took for the skin lesions of the psoriasis mice. Then the mice were sacrificed by cervical vertebra luxation and the skin from the skin lesion was cut and fixed by 4% paraformaldehyde to prepare HE pathological sections.
# as §1, with “(0.2%” for “(0.5%”
# [4] = system: TH1 cells; assay: Inhibition of in vitro differentiation of TH1 cells from naive T cells (flow cytometry); type: cell-based, C57BL/6J mice; conditions: 2 μm, 4 days, IFN-γ staining
# Method: (§2) C57BL/6J mice of 6-8 week old were sacrificed by cervical vertebra luxation. The spleen was taken and ground. The cells were sieved to prepare a single-cell suspension. After dyeing on their surfaces by CD4-APC, CD25 PerCP-Cy 5.5 and CD62L-FITC, the cells were sorted by BD FACSAria III flow cytometry. The naïve T cells, i.e., CD4^+CD25^−CD62L^hi+ T cells, were used for induced differentiation of TH1, TH17 and Treg. A gradient of concentration of CKBA was added for incubation. Cells were collected after 4 days and then further cultured in incubator at 37° C. and 5% CO2 for 4-6 hours in 1640 complete culture medium supplemented with 750 ng/ml ionomycin and 50 ng/ml phorbol myristate acetate (PMA) and GolgiPlug. After suspension with PBS, the surface of the cell was stained by CD4-APC. After staining at 4° C. for 30 minutes, the cells were re-suspended once and then broke for 20 minutes at 4[…]. The cells were washed again by lotion and then stained by IFN-γ, IL-17A and FoxP3.
# [5] = system: Treg; assay: In vitro differentiation of Treg from naive T cells (flow cytometry); type: cell-based, C57BL/6J mice; conditions: 2 μm, 4 days, FoxP3 staining
# Method: as §2
# [6] = system: TH17 cells; assay: Inhibition of in vitro differentiation of TH17 cells from naive T cells (flow cytometry); type: cell-based, C57BL/6J mice; conditions: 2 μm, 4 days, IL-17A staining
# Method: as §2
# [7] = system: mouse psoriasis model; assay: Treatment of mice psoriasis induced by imiquimod with gel formulation; type: in vivo, Balb/c mice; conditions: 0.2% (w/w) gel, day 8 to day 14, topical
smiles,measurement,setting,value
"CC(=O)O[C@@H]1CC[C@@]2(C)C(CC[C@]3(C)C2C(=O)C=C2C4[C@@H](C)[C@H](C)CC[C@]4(C)CC[C@]23C)[C@@]1(C)C(=O)O (stereo partly drawn) [AKBA, Acetyl-11-keto-β-boswellic acid, reference compound]",concentration that completely inhibits the growth of the skin keratinocyte,[1],100 µM
same,5-LOX inhibitory activity among boswellic acids,[2],the most obvious 5-LOX inhibitory activity
same,mice psoriasis phenotype,[3],effectively relieve
same,number of the inflammatory cells in dermis,[3],significantly reduce
same,skin thickness,[3],significantly reduce
"C[C@H]1[C@H](C)CC[C@]2(C)CC[C@]3(C)C(=CC(=O)[C@@H]4[C@@]5(C)CC[C@@H](OC(=O)C6CCCCC6)[C@](C)(C(=O)O)[C@@H]5CC[C@]43C)[C@H]12 [CKBA, 3-o-α-cyclohexanoyl-11-keto-β-boswellic acid]",concentration that completely inhibits the growth of the skin keratinocyte,[1],20 µM
same,inhibiting division and proliferation of HaCat cells as compared to AKBA,[1]; concentration gradient,more effective
same,inhibition of in vitro differentiation of TH1,[4],very effectively inhibit
same,inhibition on differentiation of Treg,[5],no inhibition
same,inhibition of in vitro differentiation of TH17,[6],very effectively inhibit
same,mice psoriasis,[7],effectively cure
same,number of the inflammatory cells in dermis,[7],significantly reduce
same,skin thickness,[7],significantly reduce
same,mice psoriasis phenotype,[3],effectively relieve
same,number of the inflammatory cells in dermis,[3],significantly reduce
same,skin thickness,[3],significantly reduce
same,treatment of mice psoriasis as compared to AKBA,[3],more effectively treat
